Test system: MV-4-11 cells
Assay: Gene expression microarray analysis (Affymetrix PrimeView) and GSEA
Type: cell-based, human
Set-up: RFU PODN (11730768_x_at) / Fold change /veh PODN (11730768_x_at) / RFU LINC00158 (11744669_a_at) / Fold change /veh LINC00158 (11744669_a_at) / RFU DUSP10 (11751237_a_at) / Fold change /veh DUSP10 (11751237_a_at) / RFU ID3 (11757404_x_at) / Fold change /veh ID3 (11757404_x_at) / RFU PLEKHG5 (11737974_s_at) / Fold change /veh PLEKHG5 (11737974_s_at) / RFU LRRC4B (11730491_at) / Fold change /veh LRRC4B (11730491_at) / RFU GIMAP4 (11747438_a_at) / Fold change /veh GIMAP4 (11747438_a_at) / RFU KRT8 (11758183_x_at) / Fold change /veh KRT8 (11758183_x_at) / RFU CNN1 (11734310_a_at) / Fold change /veh CNN1 (11734310_a_at) / RFU VPS37D (11726825_at) / Fold change /veh VPS37D (11726825_at) / RFU C10orf10 (11716522_x_at) / Fold change /veh C10orf10 (11716522_x_at) / RFU KIR2DL2 /// KIR2DL4 /// KIR2DL5A /// KIR2DL5B /// KIR2DS1 /// KIR2DS2 /// KIR2DS3 /// KIR2DS4 /// KIR3DL3 /// KIR3DL3 /// KIR3DS1 (11738374_at) / Fold change /veh KIR2DL2 /// KIR2DL4 /// KIR2DL5A /// KIR2DL5B /// KIR2DS1 /// KIR2DS2 /// KIR2DS3 /// KIR2DS4 /// KIR3DL3 /// KIR3DL3 /// KIR3DS1 (11738374_at) / RFU C1QL1 (11718748_at) / Fold change /veh C1QL1 (11718748_at) / RFU TMPRSS4 (11747572_a_at) / Fold change /veh TMPRSS4 (11747572_a_at) / RFU HAMP (11756126_x_at) / Fold change /veh HAMP (11756126_x_at) / RFU RNFT2 (11725882_a_at) / Fold change /veh RNFT2 (11725882_a_at) / RFU NR4A2 (11747474_a_at) / Fold change /veh NR4A2 (11747474_a_at) / RFU ABCC12 (11746883_a_at) / Fold change /veh ABCC12 (11746883_a_at) / RFU TMEM136 (11760407_x_at) / Fold change /veh TMEM136 (11760407_x_at) / RFU CLDN22 /// WWC2 (11732394_at) / Fold change /veh CLDN22 /// WWC2 (11732394_at) / RFU HLA-DPB1 (11760878_x_at) / Fold change /veh HLA-DPB1 (11760878_x_at) / RFU SPINT1 (11716480_a_at) / Fold change /veh SPINT1 (11716480_a_at) / RFU GAP43 (11754022_s_at) / Fold change /veh GAP43 (11754022_s_at) / RFU A4GNT (11735810_at) / Fold change /veh A4GNT (11735810_at) / RFU PRB3 (11715151_x_at) / Fold change /veh PRB3 (11715151_x_at) / RFU TUBB4B (11761932_at) / Fold change /veh TUBB4B (11761932_at) / RFU CAPN14 (11732068_a_at) / Fold change /veh CAPN14 (11732068_a_at) / RFU TMCC2 (11721928_a_at) / Fold change /veh TMCC2 (11721928_a_at) / RFU IRGQ (11745062_a_at) / Fold change /veh IRGQ (11745062_a_at) / RFU FAM174B (11720279_a_at) / Fold change /veh FAM174B (11720279_a_at) / RFU TMPRSS4 (11748680_a_at) / Fold change /veh TMPRSS4 (11748680_a_at) / RFU FAM212B (11763350_a_at) / Fold change /veh FAM212B (11763350_a_at) / RFU PLEKHG5 (11743358_a_at) / Fold change /veh PLEKHG5 (11743358_a_at) / RFU ZSCAN30 (11745921_a_at) / Fold change /veh ZSCAN30 (11745921_a_at) / RFU CMKLR1 (11741424_a_at) / Fold change /veh CMKLR1 (11741424_a_at) / RFU LOC101060620 /// MAPK8IP1 (11723275_at) / Fold change /veh LOC101060620 /// MAPK8IP1 (11723275_at) / RFU SPTSSB (11747773_x_at) / Fold change /veh SPTSSB (11747773_x_at) / RFU PRSS12 (11739890_at) / Fold change /veh PRSS12 (11739890_at) / RFU BIN1 (11741810_x_at) / Fold change /veh BIN1 (11741810_x_at) / RFU WNT11 (11732464_a_at) / Fold change /veh WNT11 (11732464_a_at) / RFU C10orf10 (11716521_a_at) / Fold change /veh C10orf10 (11716521_a_at) / RFU C5orf56 (11738089_at) / Fold change /veh C5orf56 (11738089_at) / RFU CYB561 (11721691_x_at) / Fold change /veh CYB561 (11721691_x_at) / RFU ANKRD19P (11752326_a_at) / Fold change /veh ANKRD19P (11752326_a_at) / RFU OR2T12 /// OR2T33 /// OR2T8 (11738714_s_at) / Fold change /veh OR2T12 /// OR2T33 /// OR2T8 (11738714_s_at) / RFU VCAN (11748164_a_at) / Fold change /veh VCAN (11748164_a_at) / RFU JSRP1 (11732532_at) / Fold change /veh JSRP1 (11732532_at) / RFU KRTAP10-11 (11738290_x_at) / Fold change /veh KRTAP10-11 (11738290_x_at) / RFU MYO3A (11730013_a_at) / Fold change /veh MYO3A (11730013_a_at) / RFU EBF3 (11725865_a_at) / Fold change /veh EBF3 (11725865_a_at) / RFU CAMK2N1 (11719241_x_at) / Fold change /veh CAMK2N1 (11719241_x_at) / RFU C5orf56 (11738088_a_at) / Fold change /veh C5orf56 (11738088_a_at) / RFU OLFML3 (11715873_a_at) / Fold change /veh OLFML3 (11715873_a_at) / RFU LOC100653217 /// NTM (11731650_a_at) / Fold change /veh LOC100653217 /// NTM (11731650_a_at) / RFU MAPK11 (11762145_a_at) / Fold change /veh MAPK11 (11762145_a_at) / RFU FIZ1 (11724087_x_at) / Fold change /veh FIZ1 (11724087_x_at) / RFU OASL (11726364_x_at) / Fold change /veh OASL (11726364_x_at) / RFU SOX15 (11748057_x_at) / Fold change /veh SOX15 (11748057_x_at) / RFU CD79A (11719716_a_at) / Fold change /veh CD79A (11719716_a_at) / RFU HIST1H1D (11736915_at) / Fold change /veh HIST1H1D (11736915_at) / RFU CASKIN2 (11723855_a_at) / Fold change /veh CASKIN2 (11723855_a_at) / RFU LOC730098 (11760151_x_at) / Fold change /veh LOC730098 (11760151_x_at) / RFU OR4N2 (11742367_at) / Fold change /veh OR4N2 (11742367_at) / RFU PRRT2 (11749266_a_at) / Fold change /veh PRRT2 (11749266_a_at) / RFU SNX32 (11753110_a_at) / Fold change /veh SNX32 (11753110_a_at) / RFU CDHR5 (11726645_a_at) / Fold change /veh CDHR5 (11726645_a_at) / RFU RCAN1 (11760418_a_at) / Fold change /veh RCAN1 (11760418_a_at) / RFU FAM167A (11723789_a_at) / Fold change /veh FAM167A (11723789_a_at) / RFU FAM26E (11764081_at) / Fold change /veh FAM26E (11764081_at) / RFU ISYNA1 (11749810_s_at) / Fold change /veh ISYNA1 (11749810_s_at) / RFU ACY1 (11761880_at) / Fold change /veh ACY1 (11761880_at) / RFU 11764098_at / Fold change /veh 11764098_at / RFU SAMD14 (11745864_x_at) / Fold change /veh SAMD14 (11745864_x_at) / RFU NPB (11741838_a_at) / Fold change /veh NPB (11741838_a_at) / RFU TMPRSS6 (11731388_a_at) / Fold change /veh TMPRSS6 (11731388_a_at) / RFU KRTAP10-2 (11738614_at) / Fold change /veh KRTAP10-2 (11738614_at) / RFU ARHGAP8 /// PRR5-ARHGAP8 (11727945_x_at) / Fold change /veh ARHGAP8 /// PRR5-ARHGAP8 (11727945_x_at) / RFU KRTAP5-7 /// NADSYN1 (11734609_at) / Fold change /veh KRTAP5-7 /// NADSYN1 (11734609_at) / RFU RASL12 (11751679_a_at) / Fold change /veh RASL12 (11751679_a_at) / RFU CDKN2B (11736163_a_at) / Fold change /veh CDKN2B (11736163_a_at) / RFU PRF1 (11729649_at) / Fold change /veh PRF1 (11729649_at) / RFU, ZNF638 /// ZNF638-IT1 / Fold change vs veh, ZNF638 /// ZNF638-IT1 / RFU, PANK3 / Fold change vs veh, PANK3 / RFU, SH3YL1 / Fold change vs veh, SH3YL1 / RFU, ZEB2 / Fold change vs veh, ZEB2 / RFU, NRIP1 / Fold change vs veh, NRIP1 / RFU, PTTG1IP / Fold change vs veh, PTTG1IP / RFU, CAPN2 / Fold change vs veh, CAPN2 / RFU, MED14 / Fold change vs veh, MED14 / RFU, SNORA58 / Fold change vs veh, SNORA58 / RFU, C1orf63 / Fold change vs veh, C1orf63 / RFU, LRRFIP1 / Fold change vs veh, LRRFIP1 / RFU, NDUFAF7 / Fold change vs veh, NDUFAF7 / RFU, SLC12A2 / Fold change vs veh, SLC12A2 / RFU, IBTK / Fold change vs veh, IBTK / RFU, ESF1 / Fold change vs veh, ESF1 / Fold change vs veh, TMEM50B / RFU, TAOK1 / Fold change vs veh, TAOK1 / RFU, ACBD3 / Fold change vs veh, ACBD3 / RFU, TMA16 / Fold change vs veh, TMA16 / RFU, RWDD3 / Fold change vs veh, RWDD3 / RFU, BCAT1 / Fold change vs veh, BCAT1 / RFU, EDEM3 / Fold change vs veh, EDEM3 / RFU, TMEM33 / Fold change vs veh, TMEM33 / RFU, WDR75 / Fold change vs veh, WDR75 / RFU, AHCTF1 / Fold change vs veh, AHCTF1 / RFU, TFRC / Fold change vs veh, TFRC / RFU, ZDHHC17 / Fold change vs veh, ZDHHC17 / RFU, NOM1 / Fold change vs veh, NOM1 / RFU, ARL8B / Fold change vs veh, ARL8B / RFU, ZBTB11 / Fold change vs veh, ZBTB11 / RFU, TAMM41 / Fold change vs veh, TAMM41 / RFU, KIAA1704 /// LOC100996395 / Fold change vs veh, KIAA1704 /// LOC100996395 / RFU, ING1 / Fold change vs veh, ING1 / RFU, TRMT61B / Fold change vs veh, TRMT61B / RFU, FUBP3 / Fold change vs veh, FUBP3 / RFU, TP53 / Fold change vs veh, TP53 / RFU, TNKS2 / Fold change vs veh, TNKS2 / RFU, ZFP14 / Fold change vs veh, ZFP14 / RFU, ACTR2 / Fold change vs veh, ACTR2 / RFU, PPP3R1 / Fold change vs veh, PPP3R1 / RFU, PIK3R1 / Fold change vs veh, PIK3R1 / RFU, HNRNPA1 / Fold change vs veh, HNRNPA1 / RFU, RNF170 / Fold change vs veh, RNF170 / RFU, ZNF28 / Fold change vs veh, ZNF28 / RFU, RNGTT / Fold change vs veh, RNGTT / RFU, OGT / Fold change vs veh, OGT / RFU, BRD1 / Fold change vs veh, BRD1 / RFU, MARS / Fold change vs veh, MARS / RFU, ZNF655 / Fold change vs veh, ZNF655 / RFU, FAHD1 / Fold change vs veh, FAHD1 / RFU, BDP1 / Fold change vs veh, BDP1 / RFU, LRRCC1 / Fold change vs veh, LRRCC1 / RFU, ARID1A / Fold change vs veh, ARID1A / RFU, ZNF146 / Fold change vs veh, ZNF146 / RFU, ZNF330 / Fold change vs veh, ZNF330 / RFU, GPN3 / Fold change vs veh, GPN3 / RFU, C9orf123 / Fold change vs veh, C9orf123 / RFU, N4BP2L2 / Fold change vs veh, N4BP2L2 / RFU, ARFIP1 / Fold change vs veh, ARFIP1 / RFU, FAM179B / Fold change vs veh, FAM179B / RFU, BCL10 / Fold change vs veh, BCL10 / RFU, UHRF1BP1L / Fold change vs veh, UHRF1BP1L / RFU, BET1 / Fold change vs veh, BET1 / RFU, CNOT2 / Fold change vs veh, CNOT2 / RFU, ZNF268 / Fold change vs veh, ZNF268 / Fold change vs veh, ZNF507 / RFU, DGCR2 / Fold change vs veh, DGCR2 / RFU, WDSUB1 / Fold change vs veh, WDSUB1 / Fold change vs veh, HSP90B1 /// MIR3652 / RFU, ADSS / Fold change vs veh, ADSS / RFU, GK / Fold change vs veh, GK / RFU, ZNF148 / Fold change vs veh, ZNF148 / RFU, TAF9 / Fold change vs veh, TAF9 / RFU, SLC1A5 / Fold change vs veh, SLC1A5 / RFU, SLMO2 / Fold change vs veh, SLMO2 / RFU, ABCC4 / Fold change vs veh, ABCC4 / RFU, LOC101060439 /// RAP1B / Fold change vs veh, LOC101060439 /// RAP1B / RFU, RFX7 / Fold change vs veh, RFX7 / RFU, GTPBP10 / Fold change vs veh, GTPBP10 / RFU, CNEP1R1 / Fold change vs veh, CNEP1R1 / RFU, BIVM-ERCC5 /// ERCC5 / Fold change vs veh, BIVM-ERCC5 /// ERCC5 / RFU, ILF3 / Fold change vs veh, ILF3 / RFU 11762660_at / Fold change /veh 11762660_at / RFU VCAN (11757783_s_at) / Fold change /veh VCAN (11757783_s_at) / RFU DDX43 (11728927_at) / Fold change /veh DDX43 (11728927_at) / RFU KRT8 (11758188_x_at) / Fold change /veh KRT8 (11758188_x_at) / RFU NKD1 (11759106_at) / Fold change /veh NKD1 (11759106_at) / RFU SRD5A1 (11742802_a_at) / Fold change /veh SRD5A1 (11742802_a_at) / RFU TPSAB1 /// TPSB2 (11721975_s_at) / Fold change /veh TPSAB1 /// TPSB2 (11721975_s_at) / RFU GSTM3 (11746129_a_at) / Fold change /veh GSTM3 (11746129_a_at) / RFU IL23R (11737362_x_at) / Fold change /veh IL23R (11737362_x_at) / RFU TMEM51 (11727254_a_at) / Fold change /veh TMEM51 (11727254_a_at) / RFU PIWIL2 (11732686_x_at) / Fold change /veh PIWIL2 (11732686_x_at) / RFU ORM1 (11744905_x_at) / Fold change /veh ORM1 (11744905_x_at) / RFU CCDC152 (11743942_at) / Fold change /veh CCDC152 (11743942_at) / RFU ECM1 (11717891_a_at) / Fold change /veh ECM1 (11717891_a_at) / RFU IL23R (11748794_a_at) / Fold change /veh IL23R (11748794_a_at) / RFU TNFAIP8L3 (11732012_x_at) / Fold change /veh TNFAIP8L3 (11732012_x_at) / RFU MBOAT4 (11741988_at) / Fold change /veh MBOAT4 (11741988_at) / RFU 11764193_at / Fold change /veh 11764193_at / RFU TMEM53 (11763286_at) / Fold change /veh TMEM53 (11763286_at) / RFU MAGEB2 (11727129_at) / Fold change /veh MAGEB2 (11727129_at) / RFU TMEM200A (11744735_a_at) / Fold change /veh TMEM200A (11744735_a_at) / RFU CCDC152 (11751479_a_at) / Fold change /veh CCDC152 (11751479_a_at) / RFU FAM211A (11726209_a_at) / Fold change /veh FAM211A (11726209_a_at) / RFU RGS16 (11746705_a_at) / Fold change /veh RGS16 (11746705_a_at) / RFU VCAN (11755009_s_at) / Fold change /veh VCAN (11755009_s_at) / RFU RHOB (11743442_s_at) / Fold change /veh RHOB (11743442_s_at) / RFU RGS16 (11720943_a_at) / Fold change /veh RGS16 (11720943_a_at) / RFU RGS16 (11720944_at) / Fold change /veh RGS16 (11720944_at) / RFU, VPS4B / Fold change vs veh, VPS4B / RFU, CREB1 / Fold change vs veh, CREB1 / RFU, DNAJC13 / Fold change vs veh, DNAJC13 / RFU, GNAQ / Fold change vs veh, GNAQ / RFU, CDK5R1 / Fold change vs veh, CDK5R1 / RFU, ZRANB3 / Fold change vs veh, ZRANB3 / RFU, CUL4A / Fold change vs veh, CUL4A / RFU, CCNY / Fold change vs veh, CCNY / RFU, UFL1 / Fold change vs veh, UFL1 / RFU, COG3 / Fold change vs veh, COG3 / RFU, DIAPH2 / Fold change vs veh, DIAPH2 / RFU, SKA2 / Fold change vs veh, SKA2 / RFU, AFF3 / Fold change vs veh, AFF3 / RFU, LMF1 / Fold change vs veh, LMF1 / RFU, IPO11 / Fold change vs veh, IPO11 / RFU, DFFB / Fold change vs veh, DFFB / RFU, FOXP1 / Fold change vs veh, FOXP1 / RFU, CARD8 / Fold change vs veh, CARD8 / RFU, STRN3 / Fold change vs veh, STRN3 / RFU, ADK / Fold change vs veh, ADK / RFU, RASSF2 / Fold change vs veh, RASSF2 / RFU, WIPF1 / Fold change vs veh, WIPF1 / RFU, LARP1B / Fold change vs veh, LARP1B / RFU, RASA1 / Fold change vs veh, RASA1 / RFU, RB1 / Fold change vs veh, RB1 / RFU, PPFIA1 / Fold change vs veh, PPFIA1 / RFU, MAT2A / Fold change vs veh, MAT2A / RFU, CCT5 / Fold change vs veh, CCT5 / RFU, WDR92 / Fold change vs veh, WDR92 / RFU, CUX1 / Fold change vs veh, CUX1 / RFU, TTC7A / Fold change vs veh, TTC7A / RFU, TMEM135 / Fold change vs veh, TMEM135 / RFU, DEPTOR / Fold change vs veh, DEPTOR / RFU, CPM / Fold change vs veh, CPM / RFU, DNAJB6 / Fold change vs veh, DNAJB6 / RFU, CACNA2D3 / Fold change vs veh, CACNA2D3 / RFU, DTX4 / Fold change vs veh, DTX4 / RFU, TFCP2 / Fold change vs veh, TFCP2 / RFU, GMCL1 /// GMCL1P1 / Fold change vs veh, GMCL1 /// GMCL1P1 / RFU, AEBP2 / Fold change vs veh, AEBP2 / RFU, SNHG1 /// SNORD22 /// SNORD25 /// SNORD26 /// SNORD27 /// SNORD28 /// SNORD29 /// SNORD31 / Fold change vs veh, SNHG1 /// SNORD22 /// SNORD25 /// SNORD26 /// SNORD27 /// SNORD28 /// SNORD29 /// SNORD31 / Fold change (Aza/veh), C12orf56 (ProbeSet 11735607_a_at) / Fold change (ACY-1035/veh), C12orf56 (ProbeSet 11735607_a_at) / Fold change (Aza/veh), FGFR1OP (ProbeSet 11751329_s_at) / Fold change (ACY-1035/veh), FGFR1OP (ProbeSet 11751329_s_at) / Fold change (Aza/veh), VPS36 (ProbeSet 11739960_a_at) / Fold change (ACY-1035/veh), VPS36 (ProbeSet 11739960_a_at) / RFU SYPL1 (11715823_x_at) / Fold change /veh SYPL1 (11715823_x_at) / RFU IGFBP7 (11715501_s_at) / Fold change /veh IGFBP7 (11715501_s_at) / RFU REEP3 (11722064_at) / Fold change /veh REEP3 (11722064_at) / RFU IGLL1 (11728026_x_at) / Fold change /veh IGLL1 (11728026_x_at): dose or concentration left out as unconfirmed
Settings: ProbeSet 11717523_x_at; LIST B

## Nc1ccc(-c2cccs2)cc1NC(=O)c1ccc2c(c1)cc(C1CC1)n2CCN1CCOCC1 [ACY-1035]
  Fold change vs veh, TMEM50B: 0.88

From article PMC5218480 (PLoS ONE, 2017)
